Measurements taken from patent US20030203975A1, “Anti-cancer agents” (priority 1998, published 2003).

Experiments:
Topoisomerase IIα [1] = molecular target: T1, Topoisomerase IIα (Homo sapiens, UniProt P11388); test: Topo II relaxation assay; format: biochemical; parameters: key: ‘—’ = Not active; settings: unit not given; compound at 1, 10, 25 and 50 μM in protocol
Protocol: (§1) Topo II Relaxation Assay Protocol
(§2) 10×Topo II Relaxation Buffer
(§3) 500 mM Tris-HCl (pH 7.5); 100 mM mgCI2; 50 mM EDTA; 300 mg/mI BSA; 10 mM DTT; −20° C.

Topoisomerase IIβ [2] = molecular target: T2, Topoisomerase IIβ (Homo sapiens, UniProt Q02880); test: Topo II relaxation assay; format: biochemical; parameters: key: ‘—’ = Not active; settings: unit not given; compound at 1, 10, 25 and 50 μM in protocol
Protocol: as §1, §2, §3

[3] = test system: MAC 15A adenocarcinoma of the colon; test: In vitro chemosensitivity against MAC 15A adenocarcinoma (MTT assay); format: cell-based; settings: Mus musculus, MAC15A, 96 hours continuous exposure
Protocol: In Vitro Activity Against MAC 15A Adenocarcinoma.
MAC 15A cells were grown in RPMI 1640 medium supplemented with 10% foetal calf serum containing a 1% antibiotic mixture under standard tissue culture conditions and were maintained at 37° C. in a humidified atmosphere of 5% CO2 in air. Cells were harvested from a stock culture in exponential growth phase and plated in 96-well flat-bottomed plates to achieve a final density of 2×10^3 cells per well. After 2 hours incubation medium was replaced with either fresh medium containing 0.5% DMSO (control) or medium containing test compound dissolved in DMSO at a concentrations from 10 mM to 1 nM. Chemosensitivity was assessed using MTT assay by the method of Plumb et al Cancer Research 49 (1989) 4435-4440.
Following 96 hours continuous exposure to drug at 37° C. cells were incubated with fresh drug-free medium immediately prior to addition of MTT solution (5 mg/ml). Medium and MTT were removed after 4 hours and 150 μl of DMSO was added. For each plate the absorbance of the resulting solution was measured at the analytical wavelength 550 nm for formazan product, using a Labsystem Mutiskan. IC50 values were obtained from growth curves of drug concentration against % survival and are expressed in μm.

Topoisomerase IIβ [4] = molecular target: T2, Topoisomerase IIβ; test: Topo II decatenation assay; format: biochemical; settings: unit not given; kDNA substrate; compound at 1, 10, 25 and 50 μM in protocol
Protocol: (§4) Topisomerase Decatenation Assay.
(§5) This method uses catenated DNA substrate prepared from the kinetoplast of the insect trypanosome Crithidia fasciculata. Upon incubation with topo II, which engages DNA in a double stranded breakage-reunion cycle, DNA minicircles are released. Addition of topo-inhibiting drugs may prevent decatenation.
(§6) Topo II Decatenation Assay Protocol
(§7) This assay is the same as the Topo II Relaxation assay except that the pBR 322 Plasmid DNA is replaced with kDNA.
(§8) Results are included in Table 3 below

Topoisomerase IIα [5] = molecular target: T1, Topoisomerase IIα; test: Topo II decatenation assay; format: biochemical; parameters: key: ‘—’ = Not active; settings: unit not given; kDNA substrate; compound at 1, 10, 25 and 50 μM in protocol
Protocol: as §4, §5, §6, §7, §8

Topoisomerase I = molecular target: T3, Topoisomerase I (Homo sapiens, UniProt P11387); test: Topo I cleavage assay; format: biochemical; settings: at 10 μM
T3 sequence (P11387 1-765): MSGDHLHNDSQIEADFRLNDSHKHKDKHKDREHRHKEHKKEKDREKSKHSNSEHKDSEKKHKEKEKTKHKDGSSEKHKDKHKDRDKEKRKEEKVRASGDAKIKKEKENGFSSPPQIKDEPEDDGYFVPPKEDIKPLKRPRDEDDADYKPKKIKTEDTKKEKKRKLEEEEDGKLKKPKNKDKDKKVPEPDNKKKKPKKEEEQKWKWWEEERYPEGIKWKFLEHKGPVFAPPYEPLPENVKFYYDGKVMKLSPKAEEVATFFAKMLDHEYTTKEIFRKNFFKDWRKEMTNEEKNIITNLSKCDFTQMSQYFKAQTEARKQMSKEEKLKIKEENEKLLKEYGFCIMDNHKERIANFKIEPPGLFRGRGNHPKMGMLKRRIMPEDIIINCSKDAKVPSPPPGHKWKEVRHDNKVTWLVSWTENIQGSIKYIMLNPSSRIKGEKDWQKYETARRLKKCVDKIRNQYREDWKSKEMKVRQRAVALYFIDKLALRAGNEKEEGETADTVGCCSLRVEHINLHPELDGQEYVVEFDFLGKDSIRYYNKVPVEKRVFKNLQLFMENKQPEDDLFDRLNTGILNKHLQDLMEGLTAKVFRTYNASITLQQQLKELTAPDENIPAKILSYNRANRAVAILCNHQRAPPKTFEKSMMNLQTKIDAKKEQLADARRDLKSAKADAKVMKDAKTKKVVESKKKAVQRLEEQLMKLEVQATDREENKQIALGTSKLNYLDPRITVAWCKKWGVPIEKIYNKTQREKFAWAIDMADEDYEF

T2 sequence (Q02880 whole entry): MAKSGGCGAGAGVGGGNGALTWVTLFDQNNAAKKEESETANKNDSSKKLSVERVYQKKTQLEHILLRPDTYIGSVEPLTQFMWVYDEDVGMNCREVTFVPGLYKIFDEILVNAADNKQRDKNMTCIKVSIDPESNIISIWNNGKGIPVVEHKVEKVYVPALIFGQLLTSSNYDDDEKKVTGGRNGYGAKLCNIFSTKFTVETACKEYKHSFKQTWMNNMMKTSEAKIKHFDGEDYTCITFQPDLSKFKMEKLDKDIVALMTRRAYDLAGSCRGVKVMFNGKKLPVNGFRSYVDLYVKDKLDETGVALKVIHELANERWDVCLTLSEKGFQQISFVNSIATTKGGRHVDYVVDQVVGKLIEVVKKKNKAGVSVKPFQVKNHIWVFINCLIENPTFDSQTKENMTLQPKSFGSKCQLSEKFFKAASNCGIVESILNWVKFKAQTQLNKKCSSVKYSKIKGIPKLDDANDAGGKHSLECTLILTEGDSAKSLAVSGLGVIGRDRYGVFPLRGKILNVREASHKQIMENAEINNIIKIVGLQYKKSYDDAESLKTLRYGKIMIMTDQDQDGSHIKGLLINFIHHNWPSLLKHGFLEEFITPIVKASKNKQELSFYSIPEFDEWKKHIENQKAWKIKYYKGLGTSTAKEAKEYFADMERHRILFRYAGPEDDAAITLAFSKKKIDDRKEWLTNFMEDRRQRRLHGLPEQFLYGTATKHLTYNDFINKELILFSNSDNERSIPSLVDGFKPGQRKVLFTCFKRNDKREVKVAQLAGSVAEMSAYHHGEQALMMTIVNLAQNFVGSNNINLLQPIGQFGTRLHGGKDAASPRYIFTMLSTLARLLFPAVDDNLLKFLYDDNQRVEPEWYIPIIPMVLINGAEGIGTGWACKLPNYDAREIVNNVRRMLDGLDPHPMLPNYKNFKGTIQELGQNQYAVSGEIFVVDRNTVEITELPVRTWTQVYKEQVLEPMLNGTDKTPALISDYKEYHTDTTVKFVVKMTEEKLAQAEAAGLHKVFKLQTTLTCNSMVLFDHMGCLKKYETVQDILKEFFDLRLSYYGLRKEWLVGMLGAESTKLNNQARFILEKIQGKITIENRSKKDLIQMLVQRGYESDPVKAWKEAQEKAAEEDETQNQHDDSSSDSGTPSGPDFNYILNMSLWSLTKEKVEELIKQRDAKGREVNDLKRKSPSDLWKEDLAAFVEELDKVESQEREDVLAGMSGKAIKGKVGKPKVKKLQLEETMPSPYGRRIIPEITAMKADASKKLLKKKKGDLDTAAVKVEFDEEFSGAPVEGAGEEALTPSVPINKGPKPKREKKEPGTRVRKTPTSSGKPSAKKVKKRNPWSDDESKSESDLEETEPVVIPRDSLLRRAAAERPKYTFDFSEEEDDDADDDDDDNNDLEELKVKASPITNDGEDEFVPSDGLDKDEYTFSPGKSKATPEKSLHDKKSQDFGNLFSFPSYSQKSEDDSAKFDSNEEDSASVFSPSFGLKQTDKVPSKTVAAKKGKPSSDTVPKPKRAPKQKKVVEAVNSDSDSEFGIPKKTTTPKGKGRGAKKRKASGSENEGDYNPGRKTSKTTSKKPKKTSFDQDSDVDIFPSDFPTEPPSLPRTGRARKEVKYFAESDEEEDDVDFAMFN
T1 sequence (P11388 whole entry): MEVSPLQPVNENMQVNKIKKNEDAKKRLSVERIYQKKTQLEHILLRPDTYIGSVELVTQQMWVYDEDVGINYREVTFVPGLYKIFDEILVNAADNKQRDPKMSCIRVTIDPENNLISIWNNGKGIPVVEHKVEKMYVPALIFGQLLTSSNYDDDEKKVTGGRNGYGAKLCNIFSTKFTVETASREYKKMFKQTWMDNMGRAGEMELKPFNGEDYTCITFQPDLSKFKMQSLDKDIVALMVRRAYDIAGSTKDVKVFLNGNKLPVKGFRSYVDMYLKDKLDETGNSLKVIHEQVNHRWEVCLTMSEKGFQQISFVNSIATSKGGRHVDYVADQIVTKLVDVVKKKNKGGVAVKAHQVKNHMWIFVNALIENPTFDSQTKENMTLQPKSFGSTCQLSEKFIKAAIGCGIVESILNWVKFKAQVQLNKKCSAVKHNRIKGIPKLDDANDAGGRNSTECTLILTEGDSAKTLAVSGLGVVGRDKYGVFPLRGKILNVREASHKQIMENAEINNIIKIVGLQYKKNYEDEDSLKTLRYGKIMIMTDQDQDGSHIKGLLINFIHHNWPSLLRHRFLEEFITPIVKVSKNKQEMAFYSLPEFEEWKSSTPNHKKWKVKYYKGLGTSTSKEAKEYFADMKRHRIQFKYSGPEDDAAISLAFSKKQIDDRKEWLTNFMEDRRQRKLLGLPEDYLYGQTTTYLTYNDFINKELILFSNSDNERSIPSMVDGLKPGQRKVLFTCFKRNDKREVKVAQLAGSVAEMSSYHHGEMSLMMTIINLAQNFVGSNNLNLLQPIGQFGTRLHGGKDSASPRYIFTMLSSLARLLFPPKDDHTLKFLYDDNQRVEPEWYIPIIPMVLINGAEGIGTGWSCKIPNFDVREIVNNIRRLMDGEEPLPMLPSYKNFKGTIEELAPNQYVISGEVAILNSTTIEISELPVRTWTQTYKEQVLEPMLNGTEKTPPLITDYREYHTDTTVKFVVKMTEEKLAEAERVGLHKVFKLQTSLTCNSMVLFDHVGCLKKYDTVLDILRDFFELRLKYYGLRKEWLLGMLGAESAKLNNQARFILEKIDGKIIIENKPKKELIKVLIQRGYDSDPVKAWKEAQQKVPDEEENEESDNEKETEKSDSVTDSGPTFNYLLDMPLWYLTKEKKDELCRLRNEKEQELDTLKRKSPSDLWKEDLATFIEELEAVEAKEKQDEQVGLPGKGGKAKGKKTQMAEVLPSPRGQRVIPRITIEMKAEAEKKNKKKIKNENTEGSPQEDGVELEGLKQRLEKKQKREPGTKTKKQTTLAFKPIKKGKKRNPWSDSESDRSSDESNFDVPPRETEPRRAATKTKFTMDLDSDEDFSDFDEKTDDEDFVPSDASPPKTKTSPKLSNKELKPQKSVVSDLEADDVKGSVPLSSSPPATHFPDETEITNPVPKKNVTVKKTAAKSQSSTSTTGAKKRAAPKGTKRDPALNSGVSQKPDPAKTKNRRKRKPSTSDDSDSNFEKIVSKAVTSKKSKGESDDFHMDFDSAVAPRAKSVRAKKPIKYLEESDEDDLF

SMILES | TopIIα Relax. (Topoisomerase IIα [1]) | TopIIβ Relax. (Topoisomerase IIβ [2]) | IC50 [3] | TopIIβ Decat. (Topoisomerase IIβ [4]) | TopIIα Decat. (Topoisomerase IIα [5]) | nicked plasmid (Topoisomerase I)
CC(C)[C@H](N)C(=O)OCCCNc1cccc2c1C(=O)c1ccccc1C2=O.O=C(O)C(F)(F)F [Example 35, 1-[3-(L-valyloxy)propylamino]anthracene-9,10-dione trifluoroacetate] | — | — | 2.9 µM |  |  | 
CC(C)[C@@H](N)C(=O)OCCCNc1cccc2c1C(=O)c1ccccc1C2=O.O=C(O)C(F)(F)F [Example 37, 1-[3-(D-valyloxy)propylamino]anthracene-9,10-dione trifluoroacetate] | — | — |  | 25 | — | 
O=C(O)C(F)(F)F.O=C1c2ccccc2C(=O)c2c(NCCCCOC(=O)[C@H]3CCCN3)cccc21 [Example 49, 1-[4-(D-prolyloxy)butylamino]anthracene-9,10-dione trifluoroacetate] | 25 | 25 |  |  |  | 
CC(C)[C@H](N)C(=O)OCCCNc1ccc(O)c2c1C(=O)c1c(O)cccc1C2=O.O=C(O)C(F)(F)F [Example 57, 4,8-dihydroxy-1-[3-(L-valyloxy)propylamino]anthracene-9,10-dione trifluoroacetate] | — | 25 | 3.8 µM | 25 | — | 
CC[C@@]1(O)C(=O)OCc2c1cc1n(c2=O)Cc2cc3ccccc3nc2-1 [campothecin, reference compound] |  |  |  |  |  | 90%
